Results from PMC9260974 (BMC Pharmacology & Toxicology, 2022).
Values joined by “and” are separate entries in the source; they are usually repeats but may differ in a detail not shown here. Equal values may be shown once. Read-outs that look alike come from different tables or passages of the source.

Columns and labels:
blood pressure = settings: after oral administration; cited from earlier work
[1] = Single-dose two-period crossover bioequivalence study, fed (high-fat breakfast): plasma pharmacokinetics of lisinopril and amlodipine (LC-MS/MS, NCA); settings: for concentration at 3 h / concentration at 10 h / concentration at 6 h / concentration at 5 h / concentration at 7 h / concentration at 8 h / concentration at 11 h / concentration at 12 h / concentration at 0 h / concentration at 1 h / concentration at 2 h / concentration at 4 h / concentration at 9 h / concentration at 13 h / concentration at 24 h / concentration at 36 h / concentration at 48 h / concentration at 72 h / concentration at 96 h / concentration at 144 h / concentration at 168 h: human, po, Plasma concentration of lisinopril; for concentration at 3 h: nominal time 3 h; for concentration at 3 h / concentration at 10 h / concentration at 6 h / concentration at 5 h / concentration at 7 h / concentration at 8 h / concentration at 11 h / concentration at 12 h / concentration at 0 h / concentration at 1 h / concentration at 2 h / concentration at 4 h / concentration at 9 h / concentration at 13 h / concentration at 24 h / concentration at 36 h / concentration at 48 h / concentration at 72 h / concentration at 96 h / concentration at 144 h / concentration at 168 h / Plasma concentration of lisinopril: reference (R) tablets; for concentration at 10 h: nominal time 10 h; for concentration at 6 h: nominal time 6 h; for concentration at 5 h: nominal time 5 h; for concentration at 7 h: nominal time 7 h; for concentration at 11 h: nominal time 11 h; for concentration at 12 h: nominal time 12 h; for concentration at 0 h: nominal time 0 h; for concentration at 2 h: nominal time 2 h; for concentration at 4 h: nominal time 4 h; for concentration at 9 h: nominal time 9 h; for concentration at 13 h: nominal time 13 h; for concentration at 24 h: nominal time 24 h; for concentration at 36 h: nominal time 36 h; for concentration at 48 h: nominal time 48 h; for concentration at 72 h: nominal time 72 h; for concentration at 96 h: nominal time 96 h; for Plasma concentration of lisinopril: oral, listed as LSN;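 on Plasma concentration of lisinopril: single tablet dose 10 mg/5 mg fixed combination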
Method: (§1) All eligible subjects were assigned according to the random table generated by SAS 9.4 and took the test (T) and reference(R) drugs respectively with 240 ml water after an overnight fast of at least 10 h (fasting study) or after the high-fat breakfast within half an hour before dosing (fed study). […] Subjects were forbidden to drink water within 1 h before and after taking the drug, and the lunch and dinner were provided at 4 h and 8 h respectively post-drug administration. No other food and beverage intake was permitted except the provided diets. […] 4 ml venous blood samples were collected before drug administration and at 1,2,3,4,5,6,7,8,9,10,11,12,13,24,36,48,72,96,144,168 h after administration. The samples were centrifuged at 1700gear per minute for 10 min at 4℃ to separate the plasma, which was divided into two aliquots (drug monitoring at least 800ul and backup) and stored at - 80℃until analysis.
(§2) The lower limit of quantification (LLOQ) was 0.500 ng/mL and the assay dynamic range was 0.500-100 ng/mL.
(§3) Under multiple reaction monitoring, LC–MS/MS system adopts positive ionization mode.
(§4) Data collection and analysis was performed with Analyst 1.6.3 software (Sciex, Canada) and Watson LIMS (Thermo, USA). Calibration curves were constructed using linear regression equation obtained by the weighted (W = 1/X2) least square method fitting for both analytes. Quantitation of quality control and clinical samples were also performed by the Analyst software using the same mathematical algorithm as that used in the calibration of standard curves.
(§5) For the purpose of bioequivalence analysis, the maximum observed concentration (Cmax), the area under the plasma concentration–time curve from time 0 to the last measured time point (AUC0-t), and the area under the plasma concentration–time curve from time 0 to infinity (AUC0-∞) were considered as primary PK parameters. The secondary PK parameters were the observed time to Cmax (Tmax) and the apparent terminal half-life (T1/2). Cmax and Tmax were the factually measured data and AUC0-t was calculated using the linear and logarithmic trapezoidal methods. AUC0-∞ was calculated according to the following formula: AUC0-∞ = AUC0-t + Clast/λz (Clast is the last measurable concentration and is the first order rate constant of terminal elimination determined from a linear regression line after logarithmic transformation at the end of concentration time curve. λz is the slope calculated by linear regression after logarithmic conversion at the end of the concentration–time curve). T1/2 was calculated to be ln2/λ.
(§6) Statistical analysis was performed by SAS 9.4. Demographic characteristics, safety parameters and pharmacokinetic data were summarized using descriptive statistics, the results were presented as the mean ± SD and the differences between groups were determined by two one-sided tests. […] AUC and Cmax were logarithmically transformed and analyzed by linear mixed effect model. Sequence, period and formulation were fixed effects, and subject within sequence was included as a random effect. Analysis of variance (ANOVA) of cross-over design was performed on the log-transformed variables. […] Bioequivalence was assessed separately in both the fasting and fed groups.

clinical = settings: human, plasma, po
Method: as §1, §2, §3, §4, §5, §6

[2] = lisinopril; cited from earlier work
[3] = human, in vivo
Method: as §1, §2, §3, §4, §5, §6

[4] = plasma, Max, maximum among subjects
[5] = plasma, Mean, mean of 37 subjects
[6] = plasma, Min, minimum among subjects
[7] = lisinopril, intra-subject coefficient of variation

In the case of `NCCCC[C@H](N[C@@H](CCc1ccccc1)C(=O)O)C(=O)N1CCC[C@H]1C(=O)O` [lisinopril], the “Time to appearance of antihypertensive effect” value (blood pressure) is given as at most 1 h, the “Time to peak antihypertensive effect” value (blood pressure) is given as “about 6 h” and the concentration at 3 h ([1]; in vivo, Max, maximum among subjects) is given as 22.4 ng/mL. For the same compound, the concentration at 10 h ([1]; in vivo, Mean, mean of 36 subjects) was 12.9 ng/mL, the concentration at 6 h ([1]; in vivo, Mean, mean of 37 subjects) was 13.3 ng/mL and the concentration at 3 h ([1]; in vivo, individual subjects) was 22.4 ng/mL. The concentration at 5 h ([1]; in vivo, individual subjects) was 12.9 ng/mL, the concentration at 6 h ([1]; in vivo, individual subjects) was 22.4 ng/mL and the concentration at 7 h ([1]; in vivo, individual subjects) was 22.4 ng/mL. The concentration at 8 h ([1]; in vivo, individual subjects, nominal time 8 h) was 22.4 ng/mL, the concentration at 11 h ([1]; in vivo, individual subjects) was 12.9 ng/mL and the concentration at 12 h ([1]; in vivo, individual subjects) was 13.3 ng/mL. The concentration at 0 h [1, 4] was 0.532 ng/mL, the concentration at 1 h ([1]; plasma, Max, maximum among subjects, nominal time 1 h) was 3.22 ng/mL and the concentration at 2 h [1, 4] was 12 ng/mL. It also gave a concentration at 4 h [1, 4] of 29.2 ng/mL, a concentration at 5 h [1, 4] of 29.7 ng/mL and a concentration at 6 h [1, 4] of 29.5 ng/mL. The concentration at 7 h [1, 4] was 29.8 ng/mL, the concentration at 8 h ([1]; plasma, Max, maximum among subjects, nominal time 8 h) was 27.4 ng/mL and the concentration at 9 h [1, 4] was 27.1 ng/mL. It also gave a concentration at 10 h [1, 4] of 24.1 ng/mL, a concentration at 11 h [1, 4] of 21.9 ng/mL and a concentration at 12 h [1, 4] of 20.8 ng/mL. The concentration at 13 h [1, 4] was 19 ng/mL, the concentration at 24 h [1, 4] was 8.44 ng/mL and the concentration at 36 h [1, 4] was 3.64 ng/mL. The concentration at 48 h [1, 4] was 3.23 ng/mL, the concentration at 72 h [1, 4] was 2.87 ng/mL and the concentration at 96 h [1, 4] was 2.72 ng/mL. The concentration at 144 h ([1]; plasma, Max, maximum among subjects, nominal time 144 h) was 2.07 ng/mL, the concentration at 168 h ([1]; plasma, Max, maximum among subjects, nominal time 168 h) was 1.66 ng/mL and the concentration at 0 h [1, 5] was 0.0284 ng/mL. For the same compound, the concentration at 1 h ([1]; plasma, Mean, mean of 37 subjects, nominal time 1 h) was 0.795 ng/mL, the concentration at 2 h [1, 5] was 2.85 ng/mL and the concentration at 3 h [1, 5] was 5.92 ng/mL. It also gave a concentration at 4 h [1, 5] of 9.3 ng/mL, a concentration at 5 h [1, 5] of 11.9 ng/mL and a concentration at 7 h [1, 5] of 13.9 ng/mL. The concentration at 8 h ([1]; plasma, Mean, mean of 37 subjects, nominal time 8 h) was 14 ng/mL, the concentration at 9 h [1, 5] was 13.5 ng/mL and the concentration at 11 h [1, 5] was 12 ng/mL. The concentration at 12 h [1, 5] was 10.8 ng/mL, the concentration at 13 h [1, 5] was 9.81 ng/mL and the concentration at 24 h [1, 5] was 4.32 ng/mL. The concentration at 36 h [1, 5] was 2.32 ng/mL, the concentration at 48 h [1, 5] was 1.88 ng/mL and the concentration at 72 h [1, 5] was 1.46 ng/mL. For the same compound, the concentration at 96 h [1, 5] was 1.21 ng/mL, the concentration at 144 h ([1]; plasma, Mean, mean of 37 subjects, nominal time 144 h) was 0.741 ng/mL and the concentration at 168 h ([1]; plasma, Mean, mean of 37 subjects, nominal time 168 h) was 0.639 ng/mL. It also gave a concentration at 0 h [1, 6] of 0 ng/mL, a concentration at 1 h ([1]; plasma, Min, minimum among subjects, nominal time 1 h) of 0 ng/mL and a concentration at 2 h [1, 6] of 0 ng/mL. For the same compound, the concentration at 3 h [1, 6] was 0.89 ng/mL, the concentration at 4 h [1, 6] was 1.37 ng/mL and the concentration at 5 h [1, 6] was 2.12 ng/mL. For the same compound, the concentration at 6 h [1, 6] was 3.02 ng/mL, the concentration at 7 h [1, 6] was 3.34 ng/mL and the concentration at 8 h ([1]; plasma, Min, minimum among subjects, nominal time 8 h) was 3.75 ng/mL. For the same compound, the concentration at 9 h [1, 6] was 4.2 ng/mL, the concentration at 10 h [1, 6] was 4.09 ng/mL and the concentration at 11 h [1, 6] was 3.97 ng/mL. For the same compound, the concentration at 12 h [1, 6] was 3.57 ng/mL, the concentration at 13 h [1, 6] was 3.73 ng/mL and the concentration at 24 h [1, 6] was 2.31 ng/mL. For the same compound, the concentration at 36 h [1, 6] was 1.27 ng/mL, the concentration at 48 h [1, 6] was 0.976 ng/mL and the concentration at 72 h [1, 6] was 0.736 ng/mL. The concentration at 96 h [1, 6] was 0.564 ng/mL, the concentration at 144 h ([1]; plasma, Min, minimum among subjects, nominal time 144 h) was 0 ng/mL and the concentration at 168 h ([1]; plasma, Min, minimum among subjects, nominal time 168 h) was 0 ng/mL. For the same compound, the “Plasma concentration of lisinopril” value ([1]; individual subjects, nominal time 1 h) was 0.899 ng/mL and 0.567 ng/mL and 0.719 ng/mL and 1.48 ng/mL and 3.22 ng/mL and 1.13 ng/mL and 0.941 ng/mL and 3.14 ng/mL and 0.842 ng/mL and 1.25 ng/mL and 0.826 ng/mL and 0.793 ng/mL and 1.55 ng/mL and 0.556 ng/mL and 0.744 ng/mL and 1.26 ng/mL and 1.43 ng/mL and 0.747 ng/mL and 1.81 ng/mL and 0.710 ng/mL and 0.799 ng/mL and 0.831 ng/mL and 2.32 ng/mL, the “Plasma concentration of lisinopril” value ([1]; individual subjects, nominal time 8 h) was 13.3 ng/mL and the “Plasma concentration of lisinopril” value ([1]; individual subjects, nominal time 144 h) was 1.05 ng/mL and 0.866 ng/mL and 2.07 ng/mL and 0.911 ng/mL and 0.569 ng/mL and 0.775 ng/mL and 0.691 ng/mL and 0.777 ng/mL and 0.834 ng/mL and 0.868 ng/mL and 0.514 ng/mL and 0.885 ng/mL and 0.919 ng/mL and 1.07 ng/mL and 1.00 ng/mL and 1.32 ng/mL and 0.715 ng/mL and 0.954 ng/mL and 1.83 ng/mL and 0.661 ng/mL and 0.869 ng/mL and 0.760 ng/mL and 0.582 ng/mL and 0.969 ng/mL and 0.992 ng/mL and 0.736 ng/mL and 0.576 ng/mL and 1.56 ng/mL and 1.10 ng/mL. For the same compound, the “Plasma concentration of lisinopril” value ([1]; individual subjects, nominal time 168 h) was 0.904 ng/mL and 0.689 ng/mL and 1.66 ng/mL and 0.780 ng/mL and 0.534 ng/mL and 0.708 ng/mL and 0.504 ng/mL and 0.629 ng/mL and 0.750 ng/mL and 0.711 ng/mL and 0.787 ng/mL and 0.832 ng/mL and 0.987 ng/mL and 0.890 ng/mL and 1.20 ng/mL and 0.696 ng/mL and 0.773 ng/mL and 0.528 ng/mL and 1.38 ng/mL and 0.522 ng/mL and 0.761 ng/mL and 0.659 ng/mL and 0.502 ng/mL and 0.849 ng/mL and 0.785 ng/mL and 0.620 ng/mL and 0.572 ng/mL and 1.04 ng/mL, the “Intra-CV (%) of AUC0-t” value [1, 7] was 13.3% and the “Intra-CV (%) of AUC0-∞” value [1, 7] was 12.9%. For the same compound, the “Intra-CV (%) of Cmax” value [1, 7] was 22.4%, the concentration at 0 h (clinical) was 0.517 ng/mL and the “Decrease of AUC0-24 by concomitant EGCG-concentrated green tea extract” value [2] was 69%. For the same compound, the “Decrease of AUC0-∞ by concomitant EGCG-concentrated green tea extract” value [2] was 67%, the “Decrease of Cmax by concomitant EGCG-concentrated green tea extract” value [2] was 71% and the “Mean fecal recovery of intact drug” value [2] was 69%. The “Intra-CV (%) of AUC0-t” value [3] was 19.3%, the “Intra-CV (%) of AUC0-∞” value [3] was 17.0% and the “Intra-CV (%) of Cmax” value [3] was 24.3%.
